Starred links: 1 amine or outer side, 2 acyl side, 3 side chain; linkers in the order of their positions; H or OH if unused. Positions of bridges follow the written chain, without caps; N, C: chain ends. Non-standard residues stand in square brackets, D forms with d. Residues, ends and D or L forms follow the SMILES beside them. ξ: configuration not given here. X4 = C=C(C)C[C@@H](N[*:1])C(=O)[*:2]; dVal(3-OH) = CC(C)(O)[C@@H](N)C(=O)O; cisHyp = O=C(O)[C@@H]1C[C@H](O)CN1; tBuAla = CC(C)(C)C[C@H](N)C(=O)O; R5 = C=CCCC[C@@](C)(N)C(=O)O; 3Amb = NCc1cccc(C(=O)O)c1; 4Amb = NCc1ccc(C(=O)O)cc1; ξP = O=C(O)C1CCCN1
Legend:
[1] = Aggregation / solubility at 1 mM; assay type: physicochemical; details: summary calls it solubility at 1mM
Experimental: (§1) The solubilities of the synthesized compounds were determined experimentally (Supplementary Table 2). Most compounds were highly soluble at a 1 mM concentration; however, some compounds tended to form aggregates. These compounds were excluded from further studies. In addition, we experimentally determined the lipophilicity of each compound, logP(oct/wat)=log(soluteoct/solutewat ), which is the partition coefficient of a compound between aqueous (water) and lipophilic (octanol) phases (Supplementary Table 2).

[2] = Lipophilicity of peptides, logP(oct/wat); assay type: physicochemical
Experimental: as §1
Lipophilicity of peptides. Two separate solutions were obtained: an aqueous phosphate buffer with saturated n-octanol, and an n-octanol solution with saturated phosphate buffer. Peptides were then dissolved and diluted in the phosphate buffer. Different partitions were then made with different n-octanol to water ratio before shaking for an hour at room temperature. The aqueous phase and n-octanol were allowed to equilibrate, and each phase was extracted and analyzed for peptide concentrations. The ratio of peptide concentration in n-octanol to that in water is expressed as log(P).

[3] = biological target: EB3 interactions with IP3R3-GFP (Homo sapiens, UniProt Q9UPY8); experiment: Competitive binding: inhibition of EB3 interaction with IP3R3-GFP in vitro; assay type: biochemical; details: for inhibition at 0.25 µM: 250 nM
Source text: We tested the efficacy of twenty-three compounds in inhibiting EB3 interactions with IP3R3-GFP via an in vitro approach developed by us[12],[13]. […] Guided by NMR studies, we predicted the binding pose of 109 to EB3 via AutoDock Vina[13],[24],[25].

Chain of EB3 interactions with IP3R3-GFP (Q9UPY8 whole entry): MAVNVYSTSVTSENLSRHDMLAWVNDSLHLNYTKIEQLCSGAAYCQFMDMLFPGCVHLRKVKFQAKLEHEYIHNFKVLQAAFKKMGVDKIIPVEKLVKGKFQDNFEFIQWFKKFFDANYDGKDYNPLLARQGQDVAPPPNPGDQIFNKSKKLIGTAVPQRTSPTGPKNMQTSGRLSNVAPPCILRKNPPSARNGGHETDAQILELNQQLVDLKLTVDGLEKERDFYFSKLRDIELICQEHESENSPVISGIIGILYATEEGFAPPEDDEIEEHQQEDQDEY

| Structure (SMILES) | Aggregation at 1mM [1] | logD [2] | inhibition at 0.25 µM [3] [%] | Competitive Binding at 250nM (% Inhibition) [3] |
| --- | --- | --- | --- | --- |
| CC[C@H](C)[C@H](NC(=O)[C@H](NC(=O)[C@@H]1C[C@H](O)CN1C(=O)[C@H](CC(C)(C)C)NC(=O)c1cccc(CNC(=O)[C@H](NC(=O)[C@@H](N)Cc2ccccc2)C(C)(C)O)c1)C(C)(C)O)C(=O)O [compound 042, ((R)-2-((2S,4S)-1-((S)-2-(3-(((R)-2-((S)-2-amino-3-phenylpropanamido)-3-hydroxy-3-methylbutanamido)methyl)benzamido)-4,4-dimethylpentanoyl)-4-hydroxypyrrolidine-2-carboxamido)-3-hydroxy-3-methylbutanoyl)-L-isoleucine] (H-F[dVal(3-OH)][3Amb][tBuAla][cisHyp][dVal(3-OH)]I-OH) | weak signal | 0.03 | 36 | – |
| C=C(C)C[C@H]1NC(=O)[C@](C)(NC(=O)[C@@H](CCC(=O)O)NC(=O)[C@H](N)[C@H](C)O)CCC/C=C\CCC[C@](C)(C(=O)N[C@H](C(=O)O)[C@@H](C)CC)NC(=O)[C@H]([C@@H](C)O)NC(=O)C2CCCN2C1=O (stereo partly drawn) [compound 052, (4R)-4-((2R,3S)-2-amino-3-hydroxybutanamido)-5-(((3S,6R,15R,18R,Z)-6-(((1S,2S)-1-carboxy-2-methylbutyl)carbamoyl)-3-((R)-1-hydroxyethyl)-6,15-dimethyl-18-(2-methylallyl)-1,4,16,19-tetraoxo-2,3,4,5,6,7,8,9,12,13,14,15,16,17,18,19,21,22,23,23a-icosahydro-1H-pyrrolo[1,2-d][1,4,7,10]tetraazacyclohenicosin-15-yl)amino)-5-oxopentanoic acid] (H-[dT][dE][R5][X4][ξP]T[R5]I-OH; staple (Z) 3-7) | 0.17 | -0.07 | 73 | – |
| C=C(C)C[C@H](NC(=O)c1ccc(CNC(=O)CC(O)CNC(=O)[C@H](N)Cc2ccccc2)cc1)C(=O)N1[C@H](C(=O)NCC(O)CC(=O)N[C@@H](CC(C)(C)C)C(=O)O)C[C@@H]2CCCC[C@@H]21 (stereo partly drawn) [compound 102, (2S)-2-(4-((2S,3aS,7aS)-1-((2S)-2-(4-((4-((R)-2-amino-3-phenylpropanamido)-3-hydroxybutanamido)methyl)benzamido)-4-methylpent-4-enoyl)octahydro-1H-indole-2-carboxamido)-3-hydroxybutanamido)-4,4-dimethylpentanoic acid.] | weak signal | 0.2 | – | no inhibition |
| CC[C@H](C)[C@H](NC(=O)[C@@H](NC(=O)[C@@H]1CCCN1C(=O)[C@@H](NC(=O)c1ccc(CNC(=O)[C@H](NC(=O)[C@@H](N)Cc2ccccc2)C(C)(C)O)cc1)[C@@H](C)CC)[C@@H](C)O)C(=O)O [compound 021, (4-(((R)-2-((S)-2-amino-3-phenylpropanamido)-3-hydroxy-3-methylbutanamido)methyl)benzoyl)-L-isoleucyl-L-prolyl-L-threonyl-L-isoleucine] (H-F[dVal(3-OH)][4Amb]IPTI-OH) | weak signal | -0.24 | 35 | – |
| CC[C@H](C)[C@H](NC(=O)CC(O)CNC(=O)[C@@H]1[C@@H]2CCCC[C@@H]2CN1C(=O)[C@H](CC(C)(C)C)NC(=O)c1cccc(CNC(=O)[C@H](NC(=O)[C@@H](N)Cc2ccccc2)C(C)(C)O)c1)C(=O)O (stereo partly drawn) [compound 041, (4-((1S,3aS,7aR)-2-((S)-2-(3-(((R)-2-((S)-2-amino-3-phenylpropanamido)-3-hydroxy-3-methylbutanamido)methyl)benzamido)-4,4-dimethylpentanoyl)octahydro-1H-isoindole-1-carboxamido)-3-hydroxybutanoyl)-L-isoleucine] | 0.18 | 0.71 | 30 | – |
